Laboratory results reported in ChEMBL document CHEMBL1201862, “PubChem BioAssay data set” (2004).
Active and inactive are the calls of the source.

How the values were obtained:
[1] = target: Voltage-dependent T-type calcium channel subunit alpha-1H (Homo sapiens, UniProt O95180); type: functional;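 further: channel activity triggered by adding a high calcium stimulation buffer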
[2] = target: FAD-linked sulfhydryl oxidase ALR (Homo sapiens, UniProt P55789); experiment: inhibitors of human ALR sulfhydryl oxidase, dose response, biochemical, H2O2 detection, luminescence, cherry-pick (AID 493248)
Sequence of FAD-linked sulfhydryl oxidase ALR (P55789 whole entry): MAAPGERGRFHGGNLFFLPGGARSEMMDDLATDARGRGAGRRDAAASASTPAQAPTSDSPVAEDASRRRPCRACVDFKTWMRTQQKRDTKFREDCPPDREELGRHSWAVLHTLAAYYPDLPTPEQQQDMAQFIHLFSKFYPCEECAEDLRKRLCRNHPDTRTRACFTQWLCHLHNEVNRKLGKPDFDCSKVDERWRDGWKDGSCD

[3] = HEp-2 cell cytotoxicity, dose response, cytotoxicity control for RSV inhibitor project, HTS (AID 2410); type: functional; settings: human respiratory syncytial virus
[4] = inhibitors of firefly luciferase expression or activity, dose response, H4 neuroglioma cells, luminescence (AID 1990); type: functional, cell-based
[5] = Luminescence Cell-Based Dose Response HTS to Identify Inhibitors of 5'UTR Stem-Loop Driven Prion Protein mRNA Translation in H4 Neuroglioblastoma Cells. [Related pubchem assays: 1827 (Project Summary), 1813 (Primary HTS)]; type: functional
Cytochrome P450 2D6 = Cytochrome P450 2D6 (Homo sapiens, UniProt P10635); experiment: qHTS Assay for Inhibitors and Substrates of Cytochrome P450 2D6. [Related pubchem assays: 410 ]; type: ADME; settings: read-out: Potency
Sequence of Cytochrome P450 2D6 (P10635 whole entry): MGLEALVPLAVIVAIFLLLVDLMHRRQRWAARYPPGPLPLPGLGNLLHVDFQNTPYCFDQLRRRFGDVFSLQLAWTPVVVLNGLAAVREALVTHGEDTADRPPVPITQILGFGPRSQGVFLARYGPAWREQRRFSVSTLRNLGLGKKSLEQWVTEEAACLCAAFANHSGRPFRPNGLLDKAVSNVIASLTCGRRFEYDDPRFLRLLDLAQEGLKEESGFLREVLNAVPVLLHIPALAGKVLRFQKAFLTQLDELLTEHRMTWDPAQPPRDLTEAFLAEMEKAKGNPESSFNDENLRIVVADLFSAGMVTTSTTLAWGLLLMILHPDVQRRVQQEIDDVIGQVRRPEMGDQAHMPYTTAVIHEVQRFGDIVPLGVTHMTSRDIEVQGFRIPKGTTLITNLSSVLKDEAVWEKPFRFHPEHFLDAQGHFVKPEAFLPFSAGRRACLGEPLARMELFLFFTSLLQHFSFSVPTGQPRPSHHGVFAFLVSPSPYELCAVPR

[6] = inhibitors of SNCA 5'UTR-driven reporter translation, confirmation, H4 neuroglioma cells, luminescence (AID 1988); type: functional, cell-based
[7] = Luminescence Cell-Based Dose Confirmation HTS to Identify Inhibitors of Platelet Dense Granule Release. [Related pubchem assays: 1663 (Primary HTS), 1678 (Summary of Project)]; type: functional
[8] = target: Luciferin 4-monooxygenase (Photinus pyralis, UniProt P08659); experiment: firefly luciferase enzyme inhibitors, dose response, biochemical, luminescence (AID 1891)
Sequence of Luciferin 4-monooxygenase (P08659 whole entry): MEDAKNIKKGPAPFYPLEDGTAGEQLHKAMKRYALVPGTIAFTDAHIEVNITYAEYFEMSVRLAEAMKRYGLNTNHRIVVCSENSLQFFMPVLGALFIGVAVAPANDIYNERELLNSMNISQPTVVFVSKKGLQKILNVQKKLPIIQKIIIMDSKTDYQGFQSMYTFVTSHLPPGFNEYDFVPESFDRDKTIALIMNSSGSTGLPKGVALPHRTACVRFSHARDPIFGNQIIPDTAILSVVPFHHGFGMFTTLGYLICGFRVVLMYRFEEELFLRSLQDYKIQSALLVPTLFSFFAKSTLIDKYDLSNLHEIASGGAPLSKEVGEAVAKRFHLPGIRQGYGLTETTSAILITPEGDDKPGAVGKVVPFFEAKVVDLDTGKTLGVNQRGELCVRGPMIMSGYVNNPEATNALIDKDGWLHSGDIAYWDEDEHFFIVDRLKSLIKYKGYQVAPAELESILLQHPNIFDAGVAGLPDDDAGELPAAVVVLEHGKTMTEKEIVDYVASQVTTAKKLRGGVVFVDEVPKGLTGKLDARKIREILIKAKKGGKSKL

[9] = target: Dual specificity tyrosine-phosphorylation-regulated kinase 1A (Rattus norvegicus, UniProt Q63470); type: biochemical, Homo sapiens
[10] = target: T1, Histone-lysine N-methyltransferase NSD2 (Homo sapiens, UniProt O96028); type: biochemical
T1 sequence (O96028 whole entry): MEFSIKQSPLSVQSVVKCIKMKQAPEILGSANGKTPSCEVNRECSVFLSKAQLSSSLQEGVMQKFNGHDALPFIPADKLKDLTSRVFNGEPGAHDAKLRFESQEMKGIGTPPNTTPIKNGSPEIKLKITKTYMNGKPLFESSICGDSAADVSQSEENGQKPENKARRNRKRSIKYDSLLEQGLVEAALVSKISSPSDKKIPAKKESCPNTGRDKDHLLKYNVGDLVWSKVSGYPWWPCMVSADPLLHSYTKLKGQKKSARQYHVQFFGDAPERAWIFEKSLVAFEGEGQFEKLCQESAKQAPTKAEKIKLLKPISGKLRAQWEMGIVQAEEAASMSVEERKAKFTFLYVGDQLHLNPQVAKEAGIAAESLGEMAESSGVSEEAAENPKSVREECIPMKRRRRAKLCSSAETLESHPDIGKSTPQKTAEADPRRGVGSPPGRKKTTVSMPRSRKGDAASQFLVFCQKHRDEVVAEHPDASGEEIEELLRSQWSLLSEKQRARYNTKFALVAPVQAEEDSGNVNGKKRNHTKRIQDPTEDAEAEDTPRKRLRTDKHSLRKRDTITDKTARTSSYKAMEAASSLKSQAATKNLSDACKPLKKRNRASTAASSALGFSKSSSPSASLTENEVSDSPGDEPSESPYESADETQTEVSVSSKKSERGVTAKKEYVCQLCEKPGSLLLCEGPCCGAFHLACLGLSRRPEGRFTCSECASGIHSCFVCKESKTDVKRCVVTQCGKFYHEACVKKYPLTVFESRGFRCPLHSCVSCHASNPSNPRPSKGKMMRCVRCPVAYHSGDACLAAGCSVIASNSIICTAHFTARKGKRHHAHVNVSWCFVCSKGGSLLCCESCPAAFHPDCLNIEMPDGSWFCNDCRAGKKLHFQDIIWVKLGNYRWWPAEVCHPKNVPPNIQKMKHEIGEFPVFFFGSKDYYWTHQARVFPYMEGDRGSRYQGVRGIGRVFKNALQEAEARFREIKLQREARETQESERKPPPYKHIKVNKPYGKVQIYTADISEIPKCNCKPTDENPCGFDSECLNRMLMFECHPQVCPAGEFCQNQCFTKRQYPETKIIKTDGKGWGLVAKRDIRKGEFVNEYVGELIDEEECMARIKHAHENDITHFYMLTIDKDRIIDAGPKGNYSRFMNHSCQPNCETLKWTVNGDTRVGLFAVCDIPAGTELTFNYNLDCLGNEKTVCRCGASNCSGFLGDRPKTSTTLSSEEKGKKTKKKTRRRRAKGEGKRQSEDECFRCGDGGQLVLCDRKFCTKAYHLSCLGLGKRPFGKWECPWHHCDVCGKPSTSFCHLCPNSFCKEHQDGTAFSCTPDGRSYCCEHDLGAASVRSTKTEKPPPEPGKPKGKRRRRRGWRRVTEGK

Large T antigen = Large T antigen (Simian virus 40, UniProt P03070); type: functional, Betapolyomavirus macacae;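 further: Confirmatory-stage PubChem screen for compounds that inhibit SV40 T antigen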
Sequence of Large T antigen (P03070 whole entry): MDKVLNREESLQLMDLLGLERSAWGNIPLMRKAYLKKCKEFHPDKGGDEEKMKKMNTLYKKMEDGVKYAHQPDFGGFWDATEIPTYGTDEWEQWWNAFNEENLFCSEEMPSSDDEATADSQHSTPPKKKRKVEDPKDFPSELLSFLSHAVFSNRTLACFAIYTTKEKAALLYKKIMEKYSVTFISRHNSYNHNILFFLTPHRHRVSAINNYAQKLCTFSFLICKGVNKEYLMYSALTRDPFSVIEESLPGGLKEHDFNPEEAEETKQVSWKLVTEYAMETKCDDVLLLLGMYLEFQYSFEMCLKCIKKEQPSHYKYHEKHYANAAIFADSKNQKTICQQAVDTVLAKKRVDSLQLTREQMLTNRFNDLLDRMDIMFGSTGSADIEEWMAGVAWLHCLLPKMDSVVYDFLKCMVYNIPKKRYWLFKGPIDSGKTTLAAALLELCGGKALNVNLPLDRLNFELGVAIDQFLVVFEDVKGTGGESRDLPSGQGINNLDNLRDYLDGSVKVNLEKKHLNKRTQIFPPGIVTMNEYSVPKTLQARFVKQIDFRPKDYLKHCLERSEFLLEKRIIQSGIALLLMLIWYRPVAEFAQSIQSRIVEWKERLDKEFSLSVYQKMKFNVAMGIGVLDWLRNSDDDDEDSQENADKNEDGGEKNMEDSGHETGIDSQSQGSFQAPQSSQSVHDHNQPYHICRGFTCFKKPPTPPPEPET

Cytochrome P450 3A4 = Cytochrome P450 3A4 (Homo sapiens, UniProt P08684); settings: Potency;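 further: confirmatory qHTS run detecting inhibitors and substrates of CYP3A4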
Sequence of Cytochrome P450 3A4 (P08684 whole entry): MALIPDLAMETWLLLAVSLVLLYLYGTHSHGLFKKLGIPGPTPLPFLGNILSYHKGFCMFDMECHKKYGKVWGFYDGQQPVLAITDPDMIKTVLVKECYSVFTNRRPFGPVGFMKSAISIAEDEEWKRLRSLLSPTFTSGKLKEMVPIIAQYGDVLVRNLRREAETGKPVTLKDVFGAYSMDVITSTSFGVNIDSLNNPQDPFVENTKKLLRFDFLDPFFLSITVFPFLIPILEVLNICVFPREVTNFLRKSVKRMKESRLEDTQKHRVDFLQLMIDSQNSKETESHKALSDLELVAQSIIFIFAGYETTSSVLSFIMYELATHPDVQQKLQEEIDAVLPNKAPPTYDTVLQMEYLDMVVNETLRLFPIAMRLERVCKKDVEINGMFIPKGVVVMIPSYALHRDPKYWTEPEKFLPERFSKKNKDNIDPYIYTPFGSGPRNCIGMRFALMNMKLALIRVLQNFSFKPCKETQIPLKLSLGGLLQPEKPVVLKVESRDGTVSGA

Caspase-6 = target: T2, Caspase-6 (Homo sapiens, UniProt P55212); experiment: human caspase-6 inhibitors, dose response, biochemical, VEID-R110 fluorescence, cherry-pick (AID 720632)
T2 sequence (P55212 whole entry): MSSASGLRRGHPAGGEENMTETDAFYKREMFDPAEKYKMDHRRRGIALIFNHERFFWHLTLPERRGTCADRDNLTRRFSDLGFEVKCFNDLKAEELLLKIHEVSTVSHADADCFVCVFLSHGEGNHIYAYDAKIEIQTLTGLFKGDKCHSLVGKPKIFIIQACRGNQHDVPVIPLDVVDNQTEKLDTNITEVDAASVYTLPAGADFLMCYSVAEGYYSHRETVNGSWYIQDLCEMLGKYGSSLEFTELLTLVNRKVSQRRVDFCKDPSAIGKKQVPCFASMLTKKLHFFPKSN

Aminopeptidase N = target: T3, Aminopeptidase N (Plasmodium falciparum FcB1/Columbia, UniProt O96935); experiment: P. falciparum M1AAP inhibitors, biochemical, fluorogenic H-Leu-NHMec substrate, 1536-well (AID 1445); design: species or system Plasmodium falciparum 3D7, 3D7
T3 sequence (O96935 whole entry): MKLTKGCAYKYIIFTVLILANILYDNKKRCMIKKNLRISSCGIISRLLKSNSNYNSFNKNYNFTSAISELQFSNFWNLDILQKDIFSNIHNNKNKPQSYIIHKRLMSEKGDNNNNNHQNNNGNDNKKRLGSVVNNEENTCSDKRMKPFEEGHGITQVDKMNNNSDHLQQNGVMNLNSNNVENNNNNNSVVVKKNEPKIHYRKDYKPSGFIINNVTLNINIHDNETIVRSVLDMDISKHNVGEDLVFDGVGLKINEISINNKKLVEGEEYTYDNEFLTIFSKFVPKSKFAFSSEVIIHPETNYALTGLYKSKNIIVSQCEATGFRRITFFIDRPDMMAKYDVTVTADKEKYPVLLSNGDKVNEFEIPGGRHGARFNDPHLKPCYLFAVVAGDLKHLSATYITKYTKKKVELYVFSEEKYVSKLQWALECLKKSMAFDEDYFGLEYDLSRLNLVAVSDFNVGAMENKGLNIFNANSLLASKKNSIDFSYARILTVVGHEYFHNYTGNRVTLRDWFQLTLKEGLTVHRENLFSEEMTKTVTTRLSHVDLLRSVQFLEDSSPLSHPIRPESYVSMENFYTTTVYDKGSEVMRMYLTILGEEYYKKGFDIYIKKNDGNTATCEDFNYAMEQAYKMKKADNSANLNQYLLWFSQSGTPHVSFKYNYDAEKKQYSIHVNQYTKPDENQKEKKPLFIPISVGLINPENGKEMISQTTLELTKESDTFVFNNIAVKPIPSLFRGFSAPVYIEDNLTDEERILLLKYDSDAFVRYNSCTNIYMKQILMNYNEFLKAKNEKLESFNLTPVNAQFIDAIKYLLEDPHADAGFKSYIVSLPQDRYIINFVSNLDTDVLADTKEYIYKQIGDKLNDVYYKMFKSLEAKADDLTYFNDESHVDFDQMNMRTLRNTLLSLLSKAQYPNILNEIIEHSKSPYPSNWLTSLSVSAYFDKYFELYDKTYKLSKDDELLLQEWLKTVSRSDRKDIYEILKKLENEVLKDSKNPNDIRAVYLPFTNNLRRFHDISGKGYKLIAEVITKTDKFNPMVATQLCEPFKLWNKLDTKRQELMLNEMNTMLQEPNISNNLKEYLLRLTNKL

[11] = HEK293T cytotoxicity, dose response, cytotoxicity control for miR-122 modulator project, cell-based, inhibitor set, cherry-pick, set 2 (AID 720697); type: functional
Leucine aminopeptidase = target: T4, Leucine aminopeptidase (Plasmodium falciparum 3D7, UniProt Q8IL11); experiment: P. falciparum M17LAP inhibitors, primary screen, biochemical, fluorogenic H-Leu-NHMec substrate, 1536-well (AID 1619); type: functional
T4 sequence (Q8IL11 whole entry): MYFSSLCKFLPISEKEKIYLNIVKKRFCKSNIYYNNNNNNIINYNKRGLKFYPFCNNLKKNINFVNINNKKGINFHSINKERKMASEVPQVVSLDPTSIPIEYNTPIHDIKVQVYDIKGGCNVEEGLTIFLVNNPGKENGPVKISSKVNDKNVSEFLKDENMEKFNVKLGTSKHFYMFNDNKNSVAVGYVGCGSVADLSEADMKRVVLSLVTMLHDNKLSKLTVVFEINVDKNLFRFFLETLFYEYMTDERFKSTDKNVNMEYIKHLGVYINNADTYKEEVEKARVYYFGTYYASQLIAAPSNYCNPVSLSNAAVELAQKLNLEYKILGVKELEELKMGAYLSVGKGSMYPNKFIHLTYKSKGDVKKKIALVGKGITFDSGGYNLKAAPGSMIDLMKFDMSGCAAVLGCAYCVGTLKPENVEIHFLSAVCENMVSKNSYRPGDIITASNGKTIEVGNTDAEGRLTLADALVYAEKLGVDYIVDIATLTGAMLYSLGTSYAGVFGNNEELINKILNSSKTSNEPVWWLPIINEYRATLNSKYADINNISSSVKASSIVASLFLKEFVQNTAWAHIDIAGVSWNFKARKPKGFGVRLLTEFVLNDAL

Sequence of Voltage-dependent T-type calcium channel subunit alpha-1H (O95180 whole entry): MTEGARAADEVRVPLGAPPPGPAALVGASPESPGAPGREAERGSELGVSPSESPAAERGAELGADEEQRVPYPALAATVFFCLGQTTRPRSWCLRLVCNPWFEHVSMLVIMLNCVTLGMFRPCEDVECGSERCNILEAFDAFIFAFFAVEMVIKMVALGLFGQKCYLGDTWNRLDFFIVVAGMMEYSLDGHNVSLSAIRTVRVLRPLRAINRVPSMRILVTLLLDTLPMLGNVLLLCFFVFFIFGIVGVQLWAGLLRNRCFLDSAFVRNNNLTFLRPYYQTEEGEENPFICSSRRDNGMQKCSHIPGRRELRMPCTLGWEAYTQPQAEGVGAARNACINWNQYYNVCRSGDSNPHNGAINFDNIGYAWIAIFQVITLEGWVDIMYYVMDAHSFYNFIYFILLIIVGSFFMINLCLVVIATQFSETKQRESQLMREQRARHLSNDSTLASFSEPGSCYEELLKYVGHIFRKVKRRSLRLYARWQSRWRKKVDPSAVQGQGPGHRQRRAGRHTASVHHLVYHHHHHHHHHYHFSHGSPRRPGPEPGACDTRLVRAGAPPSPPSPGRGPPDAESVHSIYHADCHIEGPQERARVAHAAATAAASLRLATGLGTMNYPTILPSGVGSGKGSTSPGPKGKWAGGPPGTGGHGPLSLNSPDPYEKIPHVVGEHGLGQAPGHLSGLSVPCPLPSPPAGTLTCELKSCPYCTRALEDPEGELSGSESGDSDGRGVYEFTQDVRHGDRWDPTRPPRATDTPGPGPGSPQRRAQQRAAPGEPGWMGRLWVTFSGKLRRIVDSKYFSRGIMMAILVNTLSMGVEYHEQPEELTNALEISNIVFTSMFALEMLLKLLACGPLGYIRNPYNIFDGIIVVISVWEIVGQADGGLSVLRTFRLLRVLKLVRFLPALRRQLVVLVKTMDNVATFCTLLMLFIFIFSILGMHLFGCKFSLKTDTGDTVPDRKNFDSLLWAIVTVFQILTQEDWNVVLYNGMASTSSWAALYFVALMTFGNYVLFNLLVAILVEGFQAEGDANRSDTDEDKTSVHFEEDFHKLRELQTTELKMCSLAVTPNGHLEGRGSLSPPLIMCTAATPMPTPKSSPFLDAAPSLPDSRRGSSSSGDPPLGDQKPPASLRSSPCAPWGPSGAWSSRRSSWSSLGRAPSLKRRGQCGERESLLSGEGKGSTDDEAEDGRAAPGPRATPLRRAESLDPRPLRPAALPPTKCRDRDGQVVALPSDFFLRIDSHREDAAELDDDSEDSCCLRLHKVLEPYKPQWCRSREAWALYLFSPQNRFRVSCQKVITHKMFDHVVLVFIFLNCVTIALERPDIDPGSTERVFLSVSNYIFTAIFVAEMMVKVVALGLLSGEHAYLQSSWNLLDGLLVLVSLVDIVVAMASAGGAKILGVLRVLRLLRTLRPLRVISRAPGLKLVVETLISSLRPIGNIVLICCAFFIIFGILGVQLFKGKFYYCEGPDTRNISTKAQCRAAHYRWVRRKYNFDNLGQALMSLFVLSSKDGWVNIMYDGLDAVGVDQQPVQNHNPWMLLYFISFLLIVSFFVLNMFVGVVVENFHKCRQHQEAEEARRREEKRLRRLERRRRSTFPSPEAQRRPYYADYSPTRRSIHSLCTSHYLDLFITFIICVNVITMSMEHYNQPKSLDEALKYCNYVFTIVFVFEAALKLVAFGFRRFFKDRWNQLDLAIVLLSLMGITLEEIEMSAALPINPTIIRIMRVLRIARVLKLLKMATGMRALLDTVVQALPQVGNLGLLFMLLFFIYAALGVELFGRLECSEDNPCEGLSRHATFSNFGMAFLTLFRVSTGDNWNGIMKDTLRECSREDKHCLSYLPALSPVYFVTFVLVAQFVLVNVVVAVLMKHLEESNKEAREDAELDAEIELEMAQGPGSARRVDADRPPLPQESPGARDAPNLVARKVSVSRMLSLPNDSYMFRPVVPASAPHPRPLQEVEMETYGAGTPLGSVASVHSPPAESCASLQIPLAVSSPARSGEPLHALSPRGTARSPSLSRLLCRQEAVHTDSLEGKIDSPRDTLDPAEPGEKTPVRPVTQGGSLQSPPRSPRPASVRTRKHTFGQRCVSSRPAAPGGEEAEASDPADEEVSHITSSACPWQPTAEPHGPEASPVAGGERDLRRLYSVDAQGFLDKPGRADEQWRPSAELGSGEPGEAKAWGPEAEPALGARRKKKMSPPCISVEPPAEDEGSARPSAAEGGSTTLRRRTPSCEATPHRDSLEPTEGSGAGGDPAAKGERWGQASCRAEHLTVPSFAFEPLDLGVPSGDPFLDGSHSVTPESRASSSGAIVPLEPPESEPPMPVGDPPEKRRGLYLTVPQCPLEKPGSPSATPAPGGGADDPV

## O=C(Nc1ccccc1Cl)c1cc(S(=O)(=O)N2CCCCC2)ccc1N1CCOCC1
[1]
  EC50: 5.14 µM (active)

## Cc1ccc2[nH]c(-c3cccc(N)c3)cc2c1
[2]
  AC50: 13.2 µM (active)
[3]
  CC50: > 50 µM (active)
cells
  IC50: 41.4 µM (active)

## Cc1c(O)c(=O)ccn1Cc1ccccc1
[4]
  EC50: 11.3 µM (active)
[5]
  EC50: 3.71 µM (active)
Cytochrome P450 2D6
  AC50: 3.16 µM (inconclusive)
[6]
  EC50: > 120 µM (not active)

## CCn1cc(C(=O)NCc2cccc(F)c2)c(=O)c2cc(F)c(N3CCN(C(=O)c4ccco4)CC3)cc21
[3]
  CC50: > 50 µM (active)
cells
  IC50: 48.9 µM (active)

## CCn1c(C(=O)N2CCC(C(=O)NCCCSC3CCCCC3)CC2)cc2sccc21
[7]
  EC50: > 112 µM (not active)
[1]
  EC50: 3.51 µM (active)
[8]
  EC50: 25 µM (active)

## N#C/C(=C/c1ccc(O)c(O)c1)c1nc2ccccc2[nH]1
[9]
  AC50: 2.06 µM (active)
[10]
  AC50: 2.05 µM (active)
Large T antigen
  IC50: 12.3 µM (active)

## Cc1nc2ccccn2c(=O)c1CCN1CCC(C(=O)c2ccc(F)cc2)CC1 [PIRENPERONE]
Cytochrome P450 3A4
  AC50: 20 µM (inconclusive)
Cytochrome P450 2D6
  AC50: 7.94 µM (inconclusive)

## O=c1c(O)c(-c2cccc(O)c2)oc2ccccc12
Cytochrome P450 2D6
  AC50: 25.1 µM (inconclusive)

## COc1ccc(OC)c(CNC(=O)c2coc(=O)c3ccccc23)c1
[7]
  EC50: 19.5 µM (active)
[3]
  CC50: 37.8 µM (active)
cells
  IC50: 29.3 µM (active)
[8]
  EC50: > 112 µM (not active)

## O=C(O)CCN1CC2([N+](=O)[O-])C=CC(=O)C([N+](=O)[O-])(C1)C2CC(=O)c1ccccc1 (stereo not given)
Caspase-6
  AC50: 15.7 µM (active)

## CCOC(=O)CC1C(=O)NCCN1c1nc2ccc(C)cn2c(=O)c1/C=C1\SC(=S)N(C(C)CC)C1=O (stereo not given)
Aminopeptidase N
  IC50: 49.8 µM (active)
[3]
  CC50: 13.3 µM (active)

## O=c1cc(-c2ccc(O)c(O)c2)oc2c(C3O[C@H](CO)[C@@H](O)[C@H](O)[C@H]3O)c(O)cc(O)c12 (stereo not given in full)
cells
  IC50: 18 µM (active)
Large T antigen
  IC50: 3.15 µM (active)

## Cc1cc(C)cc(-n2nnc(C(=O)NCc3ccc4c(c3)OCO4)c2N)c1
[1]
  EC50: 2.39 µM (active)

## COc1cc(OC)c(NC(=O)CS(=O)(=O)Cc2nc(-c3ccc(C)cc3)oc2C)cc1Cl
[1]
  EC50: 5.56 µM (active)

## OCC1(CCOc2ccccc2)CCN(Cc2cccn2-c2ncccn2)CC1
[3]
  CC50: > 50 µM (active)
cells
  IC50: 17.9 µM (active)

## COC(=O)c1cc(NS(=O)(=O)c2ccc3c(c2)CCC(=O)N3)cc(C(=O)OC)c1
[11]
  AC50: 3.3 µM (active)

## CCOc1cc(/C=C(/C#N)c2nc3ccccc3[nH]2)ccc1OCc1ccc(C(=O)O)o1
Aminopeptidase N
  IC50: 60.8 µM (active)
Leucine aminopeptidase
  IC50: 9.14 µM (active)
